Data on three molecules can be found in article PMC6820543, “Pig liver esterases PLE1 and PLE6: heterologous expression, hydrolysis of common antibiotics and pharmacological consequences” (Scientific Reports, 2019).

In series [1] the test system is T1, PLE6 (pig liver esterase 6).
T1 construct: recombinant from pET-15b in E. coli Origami (DE3) with chaperone pGro7, His-tag column; cDNA 1698 bp, 566 residues with 18-residue signal peptide, about 60 kDa
Kind of series: LC-MS/MS product quantification, Lineweaver-Burk. Type of series: biochemical, Sus scrofa. The settings on record: Tris-HCl 50 mM pH 7.4, 37 °C, 12.5-800 µM substrate.

Substrate in the series “purified protein”: CC1(C)S[C@@H]2[C@H](NC(=O)[C@H](N)c3ccc(O)cc3)C(=O)N2[C@H]1C(=O)O
Kind of series: purified protein. The settings on record: Tris-HCl 50 mM pH 7.4, 37 °C, 12.5-800 µM substrate, beta-lactam amide hydrolysis to amoxicilloic acid.

Substrate in series [2]: CC1(C)S[C@@H]2[C@H](NC(=O)[C@H](N)c3ccccc3)C(=O)N2[C@H]1C(=O)O
Put plainly: LC-MS/MS product quantification, Lineweaver-Burk. Type of series: biochemical, Sus scrofa. To be noted: Tris-HCl 50 mM pH 7.4, 37 °C, 12.5-800 µM substrate, beta-lactam amide hydrolysis to aminobenzyl-penicilloic acid.

The term Km denotes the concentration of substrate that gives half-maximal velocity. Regarding `CC1(C)S[C@@H]2[C@H](NC(=O)[C@H](N)c3ccc(O)cc3)C(=O)N2[C@H]1C(=O)O` [amoxicillin], the Km in series [1] (beta-lactam amide hydrolysis to amoxicilloic acid) was 36.7 µM.
On to `CC1(C)S[C@@H]2[C@H](NC(=O)[C@H](N)c3ccccc3)C(=O)N2[C@H]1C(=O)O` [ampicillin], for which, in series [1] (beta-lactam amide hydrolysis to aminobenzyl-penicilloic acid), the Km was found to be 64.2 µM.

B1: PLE1 (pig liver esterase 1) (Sus scrofa) (protein)
chain: GQPASPPVVDTAQGRVLGKYVSLEGLAQPVAVFLGVPFAKPPLGSLRFAPPQPAEPWSFVKNTTSYPPMCCQDPVVEQMTSDLFTNGKERLTLEFSEDCLYLNIYTPADLTKRGRLPVMVWIHGGGLVLGGAPMYDGVVLAAHENVVVVAIQYRLGIWGFFSTGDEHSRGNWGHLDQVAALHWVQENIANFGGDPGSVTIFGESAGGESVSVLVLSPLAKNLFHRAISESGVALTVALVRKDMKAAAKQIAVLAGCKTTTSAVFVHCLRQKSEDELLDLTLKMKFLTLDFHGDQRESHPFLPTVVDGVLLPKMPEEILAEKDFNTVPYIVGINKQEFGWLLPTMMGFPLSEGKLDQKTATSLLWKSYPIANIPEELTPVATDKYLGGTDDPVKKKDLFLDLMGDVMFGVPSVTVARQHRDAGAPTYMYEFQYRPSFSSDKKPKTVIGDHGDEIFSVFGFPLLKGDAPEEEVSLSKMVMKFWANFARSGNPNGEGLPHWPMYDQEEGYLQIGVNTQAAKRLKGEEVAFWNDLLSKEAAKKPPKIKHAEL
notes: recombinant from pET-15b in E. coli Origami (DE3) with chaperone pGro7, His-tag column; cDNA 1698 bp, 566 residues with 18-residue signal peptide, about 60 kDa
As to B1, the Km in “purified protein” turned out to be 62.04 µM; in series [2] it was 89.20 µM.
